The values that follow come from patent US8063191B2, “Polynucleotides encoding for fusion proteins with natriuresis activity” (Mayo Foundation for Medical Education and Research, priority 2005, dated 2011).

The assay concerns normal dogs that were anesthetized. Nature of the assay: Hemodynamic and renal properties of intravenous LA-ANP versus ANP infusion in anesthetized normal dogs. It is filed as in vivo, dog. The settings on record: for urinary sodium excretion: baseline 47.0±18.9; for distal fractional sodium reabsorption: baseline 97.2±0.9. The procedure: Studies comparing LA-ANP to ANP were performed in normal dogs that were anesthetized. Equimolar concentrations of a low dose (2 pmol/kg/min) of LA-ANP and ANP were infused intravenously, where ANP was administered at a threshold concentration required to activate cyclic guanosine monophosphate. Equimolar concentrations of a high dose of LA-ANP and ANP (33 pmol/kg/min.) were also infused intravenously. Infusion of ANP or LA-ANP for 45 minutes was performed following a 30 minute baseline period, which was preceded by a 60 minute equilibrium period. Infusion was followed by a 30 minute wash-out period and three recovery (Rec) periods of 30 minutes each. Hemodynamic and renal parameters were measured at baseline (BL), during 45 minutes of infusion, and 120 minutes post-infusion.

The mark [1] stands for this setting: low dose 2 pmol/kg/min i.v., at 120 minutes post-infusion.
Setting [2] is: low dose 2 pmol/kg/min i.v., during infusion.

Regarding `CC[C@H](C)[C@@H]1NC(=O)[C@H](CCCNC(=N)N)NC(=O)[C@H](CC(=O)O)NC(=O)[C@H](CCSC)NC(=O)[C@H](CCCNC(=N)N)NC(=O)CNC(=O)CNC(=O)[C@H](Cc2ccccc2)NC(=O)[C@@H](NC(=O)[C@H](CO)NC(=O)[C@H](CO)NC(=O)[C@H](CCCNC(=N)N)NC(=O)[C@H](CCCNC(=N)N)NC(=O)[C@H](CC(C)C)NC(=O)[C@@H](N)CO)CSSC[C@@H](C(=O)N[C@@H](CC(N)=O)C(=O)N[C@@H](CO)C(=O)N[C@@H](Cc2ccccc2)C(=O)N[C@@H](CCCNC(=N)N)C(=O)N[C@@H](Cc2ccc(O)cc2)C(=O)O)NC(=O)CNC(=O)[C@H](CC(C)C)NC(=O)CNC(=O)[C@H](CO)NC(=O)[C@H](CCC(N)=O)NC(=O)[C@H](C)NC(=O)CNC1=O` [ANP, reference compound], the “natriuresis (in words)” value under setting [1] was “not increased”. In addition, under setting [2], the “glomerular filtration rate (in words)” value is listed as “No change”, the “mean arterial pressure (in words)” value is “No change” and the “natriuresis (in words)” value was “not increased”. In addition, the “diuresis (in words)” value (low dose 2 pmol/kg/min i.v., with infusion) was “no significant change”.

As to “SLRRSSCFGGRMDRIGAQSGLGCNSFRYRITA-REDKQGWA (SLRRSSCFGGRMDRIGAQSGLGCNSFRYRITAREDKQGWA; listed as Homo sapiens) [LA-ANP]”, where the note is “equimolar i.v. infusion”, the “diuretic effect as compared to ANP” value was “greater diuretic effect” and the “natriuretic effect as compared to ANP” value is on record as “greater natriuretic effect”. For the setting “high dose 33 pmol/kg/min i.v.”, the “glomerular filtration rate, compared to high dose of ANP” value is reported as “increased” and the “mean arterial pressure, compared to high dose of ANP” value was “decreased”. For the same molecule, the urinary sodium excretion (low dose 2 pmol/kg/min i.v., at 120 minutes post-infusion, p<0.01) is given as 119.2±34.2 μEq/min. The “distal fractional sodium reabsorption” value under setting [1] amounted to 95.3±0.9%. The molecule further gave a urinary sodium excretion (low dose 2 pmol/kg/min i.v., during 45 min infusion, p<0.01) of 88.4±17.5 μEq/min. For the same molecule, under setting [2], the “glomerular filtration rate (in words)” value is listed as “No change”; the “mean arterial pressure (in words)” value is “No change”; the “renal blood flow, compared to low dose ANP” value is “increased”; the “distal fractional sodium reabsorption” value is reported as 96.0±0.6%. Besides, where the note is “low dose 2 pmol/kg/min i.v., during infusion, baseline 0.34±0.08, p<0.01”, the “diuresis (urine flow)” value is 1.08 ± 0.23 mL/min. For the same molecule, the “distal fractional sodium reabsorption, overall, compared to low dose of ANP” value (low dose 2 pmol/kg/min i.v., p<0.01) is recorded as “significantly decreased”.
